Laboratory results reported in US20220387457A1 (Qlaris Bio, Inc., priority 2020, published 2022).

Key:
[1] = tested on: α-SMA, CD31, endothelin-I, fibronectin, VE-cadherin, phospho-eNOS and total eNOS; test: Protein expression (western blot, immunocytochemistry) in 3D HTM/SC constructs; assay type: cell-based, human; conditions: levcromakalim 1, 10 or 100 μM; Y-27632 10 μM
Procedure: Bioengineered 3D conventional outflow tract constructs using 4 donors (ages 47-91) were treated with […] (5 ng/mL) for 6 days. […] Protein expression of α-smooth muscle actin (α-SMA), CD31, endothelin-I, fibronectin, VE-cadherin, phospho-eNOS and total eNOS was analyzed via western blot. Cellular expression of α-SMA, fibronectin, phospho-eNOS and total eNOS was determined by immunocytochemistry and confocal microscopy. Statistical significance was determined by one-way ANOVA with a Tukey's multiple comparisons test, or by two-way ANOVA.

[2] = In vitro conversion of CKLP1 to levcromakalim in human ocular tissues and fluids; assay type: in vitro ADME; conditions: 10 μM CKLP1, 37° C.
Procedure: Aqueous humor was collected from each eye and combined in a single 1.5-mL tube. The eyes were then bisected at the equator, and vitreous humor was collected from both eyes, combined, and placed in a 15-mL conical tube and centrifuged at 1500 rpm for 10 minutes. Following centrifugation, the upper supernatant phase (less viscous region) was isolated and placed in a 1.5-mL tube. Tubes containing aqueous and vitreous humor were stored on ice. The following tissues were dissected from the eyes: cornea, retina, optic nerve, sclera, iris, ciliary body, and trabecular meshwork. The tissue samples were placed in 1.5-mL tubes containing approximately 200 μL of 50 mM Tris buffer pH 7.1. Each sample, except for the optic nerve sample, contained tissue from both eyes. Samples were stored on ice. Tissues were independently homogenized with a Polytron PT 1200 (setting 8) and placed on ice. The trabecular meshwork was lysed using a small pestle. In between samples, the homogenizer was cleaned and washed thoroughly with a minimum of 200 mL of distilled water.
Remaining tissue and debris were pelleted in an Eppendorf 5415C centrifuge at 13,000 rpm for 2 minutes. Supernatants were isolated and placed in clean 1.5-mL tubes. A Bradford protein assay was performed with 5 μL of supernatant of each sample. At the completion of the assay, 200-μL aliquots of each sample were placed in a 96-well plate, and protein concentrations were read using a TECAN Infinite® M200 plate reader at 595 nm. The final concentrations for all samples was 150 μg of protein in a solution of 10 μM CKLP1, except for vitreous humor, which only contained 100 μg of protein in 10 μM CKLP1 due to low protein concentration. There were 18 samples in total. Samples were mixed, briefly centrifuged and then, for each sample, a 100-μL portion was removed and placed in a new tube so that both tubes contained 100 μL (75 μg of protein each except vitreous humor, which contained 50 μg each). All pairs of samples were placed in incubation at 37° C. For each pair of tubes, one tube was incubated for 4 hours and one tube for 24 hours. At the completion of the incubation period, 200 μL of acetonitrile was added to each tube and mixed. Tubes were briefly centrifuged and placed at −80° C.

[3] = tested on: African green monkeys (IOP); test: Effect of CKLP1 on IOP in African green monkeys; assay type: in vivo, African green monkey
Procedure: To further validate the IOP lowering effects of CKLP1 in large animal models, one eye of five African green monkeys was treated with topical ocular administration of 10 mM CKLP1, while the contralateral eye received vehicle (PBS). Baseline IOP in control and treated eyes were 20.1±1.8 mmHg and 21.9±2.5 mmHg, respectively.
For treatment days, 10 mM CKLP1 (dissolved in PBS) was added to one eye of each monkey in a 50 μl topical ocular administration, once daily, for 7 consecutive days, while the contralateral eye received a 50 μl ocular administration of vehicle (PBS).

[4] = Toxicity and clinical signs after escalating intravenous doses of CKLP1 in beagles; assay type: in vivo, beagle dog; conditions: both sexes, beagle, dog, in vivo
Procedure: (§1) Two beagles (one male and one female) were intravenously injected with escalating doses of CKPL1 (0.05 mg/kg, 0.5 mg/kg, 1.5 mg/kg, 3 mg/kg, and 5 mg/kg) to assess the toxicity of CKLP1. The injection was done through the cephalic vein and CKLP1 was administered in a phosphate buffered saline solution ((0.096% sodium phosphate dibasic, 0.089% sodium dihydrogen orthophosphate monohydrate, 0.83% sodium chloride) pH 6.5±0.1 in sterile water for injection USP). The dosing schedule is shown below in Table 3.
(§2) The following parameters and endpoints were evaluated: mortality, clinical observations, body and organ weights, and food consumption. Bioanalytical samples for toxicokinetic parameters (for both CKLP1 and leveromakalim) were collected after each dose level (days 1, 3, 8, 10, and 14) at predose, 1, 3, 6, 8, and 24 hours postdose. Animals were released from the study after completion of the bioanalytical sample collection schedule.

beagles = test: as above; assay type: in vivo, beagle dog; conditions: for dose with red discoloration of the skin: IV
Procedure: as §1, §2

rats = test: 28-day intravenous administration of CKLP1 in rats; assay type: in vivo, rat
Description: Three groups of rats were intravenously administered different doses of CKLP1. The study was 28 days long with a 14-day recovery period.

[5] = 10 mM CKLP1 topical once daily, 7 days

## CC1(C)Oc2ccc(C#N)cc2[C@@H](N2CCCC2=O)[C@@H]1O [Levcromakalim, levcromakalim, reference compound]
[1]
  expression of the cell adhesion proteins CD31 and VE-Cadherin: did not significantly affect

## CC1(C)Oc2ccc(C#N)cc2[C@@H](N2CCCC2=O)[C@@H]1OP(=O)(O)O [CKLP1]
[2]; human aqueous humor
  conversion of CKLP1 to levcromakalim over 24 hours: not
[2]; human ciliary body
  conversion of CKLP1 to levcromakalim over 24 hours: 2.6%
[2]; human cornea
  conversion of CKLP1 to levcromakalim over 24 hours: 0.8%
[2]; human iris
  conversion of CKLP1 to levcromakalim over 24 hours: 3.9%
[2]; human optic nerve
  conversion of CKLP1 to levcromakalim over 24 hours: 0.9%
[2]; human retina
  conversion of CKLP1 to levcromakalim over 24 hours: 0.7%
[2]; human sclera
  conversion of CKLP1 to levcromakalim over 24 hours: 1.6%
[2]; human trabecular meshwork
  conversion of CKLP1 to levcromakalim over 24 hours: 1.6%
[2]; human vitreous humor
  conversion of CKLP1 to levcromakalim over 24 hours: not
[3]; [5]
  IOP reduction compared to baseline: 3.8±1.8 mmHg
  change in IOP: 16.7±6.7%
[3]; African green monkeys
  IOP lowered by (summary): approximately 17%
[4]; iv, read-out: no-observed adverse effect level (NOAEL)
  NOAEL: 3 mg/kg
[4]; single escalating IV doses, read-out: maximum tolerated dose (MTD)
  MTD: 3 mg/kg
beagles; IV 5 mg/kg
  adverse clinical signs: increased heart rate, warm to touch, and/or partly closed eyes
beagles; IV CKLP1 0.5 mg/kg
  Clinical Signs: red discoloration of the skin (pinnae, gums, generalized
beagles; IV CKLP1 1.5 mg/kg
  Clinical Signs: red discoloration of the skin (pinnae, gums, generalized
beagles; IV CKLP1 3 mg/kg
  Clinical Signs: red discoloration of the skin (pinnae, gums, generalized
beagles; IV CKLP1 5 mg/kg
  Clinical Signs: red discoloration of the skin (pinnae, gums, generalized
beagles; escalating IV doses
  histological examination: no systemic toxicity
beagles; escalating IV doses 0.05-5 mg/kg
  mortality, body weight, food consumption: No mortality, change in body weight or food consumption
beagles; female dog
  dose with red discoloration of the skin: ≥ 0.5 mg/kg
beagles; following intravenous administration in dogs
  peripheral vasodilation: induces peripheral vasodilation
beagles; male dog
  dose with red discoloration of the skin: ≥ 0.05 mg/kg
rats; IV 0.15, 1.5, 15 mg/kg/day, 28 days
  food consumption, body weight, body weight gains vs control: no difference
rats; IV CKLP1 0.15 mg/kg/day
  Clinical Signs: Red skin forelimbs and hindlimbs; red pinnae; red
rats; IV CKLP1 1.5 mg/kg/day
  Clinical Signs: Red skin forelimbs and hindlimbs; red skin
rats; IV CKLP1 15 mg/kg/day
  Clinical Signs: Red skin forelimbs and hindlimbs; red skin
rats; following intravenous administration in rats
  peripheral vasodilation: induces peripheral vasodilation
rats; male and female rats, IV
  dose with red skin forelimbs and hindlimbs, red pinnae, red scrotums: ≥ 0.15 mg/kg/day
rats; males and females, IV
  dose with red skin forepaws: ≥ 1.5 mg/kg/day
rats; males, 15 mg/kg
  eye color: Abnormal eye color
